Test: solvent given as SMILES

O=C(O)c1cccc(Cl)c1
Conditions | solvation free energy, 298 K [kcal/mol]
in C1CCOC1 | -11.2
in C1COCCO1 | -10.9
in CC(C)CCO | -10.5
in CC(C)CO | -10.5
in CC(C)O | -10.7
in CC(C)OC(C)C | -10.1
in CCC(C)O | -10.6
in CCCCCCCCCCO | -10.3
in CCCCCCCCO | -10.4
in CCCCCCCO | -10.5
in CCCCCCO | -10.6
in CCCCCO | -10.6
in CCCCCOC(C)=O | -10.1
in CCCCO | -10.6
in CCCCOC(C)=O | -10.2
in CCCO | -10.7
in CCO | -10.7
in CCOC(C)=O | -10.4
in CCOCC | -10.5
in O | -7.03

Cc1nc(N(C)C)nc(OC(=O)N(C)C)c1C
Conditions | solvation free energy, 298 K [kcal/mol]
in O | -9.41

COC(=O)c1ccc(N)cc1
Conditions | solvation free energy, 298 K [kcal/mol]
in CCCO | -11.1

Cc1cc(O)ccc1Cl
Conditions | solvation free energy, 298 K [kcal/mol]
in O | -6.79

O=S=O
Conditions | solvation free energy, 298 K [kcal/mol]
in C1CCC2CCCCC2C1 | -1.26
in C1CCCCC1 | -1.23
in C1CCOC1 | -3.93
in C1COCCO1 | -3.41
in CC1COC(=O)O1 | -3.16
in CC#N | -3.25
in CC(=O)N(C)C | -3.52
in CC(C)=O | -3.52
in CC(C)CC(C)(C)C | -1.17
in CCCCCCC | -1.36
in CCCCCCCC | -1.01
in CCCCCCCCCCCCCCCC | -1.1
in CCOC(C)=O | -3.22
in CN1CCCC1=O | -3.11
in CO | -2.84
in COC(=O)CC#N | -2.82
in COC(C)=O | -3.08
in COCCOCCO | -4.09
in COCCOCCOC | -4.02
in COCCOCCOCCOC | -3.89
in COCCOCCOCCOCCOC | -3.85
in CS(C)=O | -4.71
in ClCCCl | -2.55
in N#Cc1ccccc1 | -2.59
in O | -2.07
in OCCO | -2.88
in OCc1ccccc1 | -2.8
in c1ccncc1 | -4.82

Cc1ccccc1C
Conditions | solvation free energy, 298 K [kcal/mol]
in CC#N | -5.37
in CC(C)CC(C)(C)C | -5.5
in CC(O)CO | -4.31
in CCCCCCC | -5.51
in CCCCCCCCCCCCCCCC | -5.38
in CCCCCCCCO | -5.3
in CCCCCO | -5.18
in CCCCOC(C)=O | -6.22
in CNC=O | -5.02
in COCCO | -5.25
in ClCCCl | -6.13
in NC=O | -3.55
in NCCO | -4.08
in O | -0.89
in O=CN1CCOCC1 | -5.27
in O=Cc1ccco1 | -5.37
in OCCO | -3.65
in OCCOCCO | -4.48
in OCCOCCOCCO | -4.61

CCCCCO
Conditions | solvation free energy, 298 K [kcal/mol]
in Brc1ccccc1 | -5.42
in C1CCOC1 | -6.61
in CC#N | -5.85
in CC(C)(C)O | -6.96
in CC(C)CC(C)(C)C | -4.37
in CC(C)CO | -6.85
in CC(C)O | -6.83
in CCCCCC | -4.62
in CCCCCCC | -4.48
in CCCCCCCC | -4.27
in CCCCCCCCCC | -4.16
in CCCCCCCCCCCCCCCC | -4.08
in CCCCCCCCCCO | -6.39
in CCCCCCCCO | -6.37
in CCCCCCO | -6.68
in CCCCO | -6.77
in CCCO | -6.78
in CO | -6.84
in Cc1cccc(C)c1 | -5.21
in Cc1ccccc1C | -5.21
in Clc1ccccc1 | -5.48
in NC=O | -5.65
in O | -4.56
in [2H]O[2H] | -4.61

COc1ccc(O)cc1
Conditions | solvation free energy, 298 K [kcal/mol]
in CCCCCC | -7.15

OC(CCl)CCl
Conditions | solvation free energy, 298 K [kcal/mol]
in CCCCOC(C)=O | -7.58
in Clc1ccccc1 | -6.02

CCCC(=O)O
Conditions | solvation free energy, 298 K [kcal/mol]
in C=CCCCCCCC=C | -4.39
in C=CCCCCCCCCCCCCCC | -3.94
in O | -6.34

COCC(OC)(OC)OC
Conditions | solvation free energy, 298 K [kcal/mol]
in O | -5.73

O=C(O)c1ccc(C(=O)O)cc1
Conditions | solvation free energy, 298 K [kcal/mol]
in CN1CCCC1=O | -16.2
in O | -11.4

CCN(CC)N=O
Conditions | solvation free energy, 298 K [kcal/mol]
in CC(C)CC(C)(C)C | -5.28
in O | -5.46

O=[N+]([O-])c1cccc(O)c1
Conditions | solvation free energy, 298 K [kcal/mol]
in CCCCCC | -7.79
in CCCCCCC | -7.72
in CCCCCCCC | -7.83
in CCCCCCCCCC | -7.74
in O | -9.63

O=S1(=O)CCCC1
Conditions | solvation free energy, 298 K [kcal/mol]
in O | -8.61

O=NN1CCCCC1
Conditions | solvation free energy, 298 K [kcal/mol]
in O | -6.34

COC(=O)c1cc(OC)c(O)c(-c2cc(C(=O)OC)cc(OC)c2O)c1
Conditions | solvation free energy, 298 K [kcal/mol]
in CCC(C)=O | -20.8
in CCCO | -20.8
in ClC=CCl | -21.7
in O | -17.3

Cc1ccccc1
Conditions | solvation free energy, 298 K [kcal/mol]
in Brc1ccccc1 | -5.15
in C1CCCCC1 | -4.89
in C1CCOC1 | -5.44
in C1COCCO1 | -5.15
in C=CCCCCCCCCCCCCCC | -4.57
in CC1CCS(=O)(=O)C1 | -4.64
in CC1COC(=O)O1 | -4.43
in CC#N | -4.72
in CC(=O)N(C)C | -4.91
in CC(=O)O | -4.57
in CC(=O)c1ccccc1 | -4.93
in CC(C)(C)O | -4.41
in CC(C)=O | -4.97
in CC(C)CC(C)(C)C | -4.66
in CC(C)CCCC(C)CCCC(C)CCCCC(C)CCCC(C)CCCC(C)C | -4.43
in CC(C)CCO | -4.47
in CC(C)CO | -4.37
in CC(C)O | -4.38
in CC(C)OC(C)C | -4.89
in CC(Cl)Cl | -5.32
in CC(O)CO | -3.58
in CCBr | -5.44
in CCC#N | -5.16
in CCC(C)=O | -5.07
in CCCC#N | -5.01
in CCCCC | -4.75
in CCCCC(CC)COC(=O)CCCCC(=O)OCC(CC)CCCC | -4.78
in CCCCC(CC)COC(=O)c1ccccc1C(=O)OCC(CC)CCCC | -4.55
in CCCCCC | -4.78
in CCCCCCC | -4.74
in CCCCCCCCCC | -4.66
in CCCCCCCCCCCCCCCC | -4.57
in CCCCCCCCO | -4.5
in CCCCCCO | -4.53
in CCCCCO | -4.49
in CCCCCl | -5.16
in CCCCN(C=O)CCCC | -4.91
in CCCCO | -4.52
in CCCCOC(=O)c1ccccc1C(=O)OCCCC | -4.82
in CCCCOC(C)=O | -5.5
in CCCCOCCCC | -4.88
in CCCO | -4.51
in CCN1CCCC1=O | -5.06
in CCN(CC)C(C)=O | -4.97
in CCN(CC)CC | -4.93
in CCNC(C)=O | -4.57
in CCNC=O | -4.49
in CCO | -4.46
in CCOC(=O)c1ccccc1C(=O)OCC | -4.68
in CCOC(C)=O | -5.04
in CCOCC | -5.12
in CCOCCOCCOCC | -4.96
in CCOc1ccccc1 | -5.02
in CN1CCCC1=O | -4.95
in CN1CCCCC1=O | -5.02
in CN(C)C=O | -4.89
in CN(C)P(=O)(N(C)C)N(C)C | -5
in CNC(C)=O | -4.57
in CNC=O | -4.35
in CO | -4.35
in COCCO | -4.55
in COc1ccccc1 | -5.04
in CS(C)=O | -4.53
in Cc1ccc(C)cc1 | -5.08
in Cc1cccc(C)n1 | -5.1
in Cc1cccc(O)c1 | -4.63
in Cc1ccccn1 | -5.12
in ClC(Cl)(Cl)Cl | -5.18
in ClC(Cl)Cl | -5.53
in ClCCCl | -5.3
in ClCCl | -5.5
in Clc1ccccc1 | -5.2
in FC(F)(F)C(F)(F)C(F)(F)C(F)(F)C(F)(F)C(F)(F)F | -3.08
in Fc1c(F)c(F)c(F)c(F)c1F | -5.33
in Fc1ccccc1 | -5.24
in ICI | -4.53
in Ic1ccccc1 | -5.03
in NC=O | -3.02
in NCCO | -3.5
in Nc1ccccc1 | -4.6
in O | -0.85
in O=C1CCCCC1 | -5.13
in O=C1CCCO1 | -4.72
in O=CN1CCOCC1 | -4.48
in O=Cc1ccco1 | -4.56
in OCCCCCO | -3.84
in OCCCCO | -3.79
in OCCCO | -3.52
in OCCO | -3.02
in OCCOCCOCCOCCO | -3.99
in OCCS | -4.12
in OCc1ccccc1 | -4.53
in S=C=S | -5.33
in [2H]O[2H] | -0.99
in c1ccc2ncccc2c1 | -4.82
in c1ccc(COCc2ccccc2)cc1 | -4.79
in c1ccccc1 | -5.32
in c1ccncc1 | -5.11

CCCC(C)(O)CC (configuration not stated)
Conditions | solvation free energy, 298 K [kcal/mol]
in CCCCCCCC | -5.4
in CCCCCCCCCC | -5.34

c1ccc2c(c1)Cc1ccccc1O2
Conditions | solvation free energy, 298 K [kcal/mol]
in C1CCOC1 | -10.9
in C1COCCO1 | -10.8
in CC(C)(C)O | -9.25
in CC(C)CC(C)(C)C | -9.39
in CC(C)CC(C)O | -9.34
in CC(C)CCO | -9.39
in CC(C)CO | -9.24
in CC(C)O | -9.22
in CC(C)OC(C)C | -9.95
in CCC(C)(C)O | -9.49
in CCC(C)O | -9.33
in CCCC(C)CO | -9.42
in CCCC(C)O | -9.43
in CCCCCC | -9.63
in CCCCCCC | -9.67
in CCCCCCCC | -9.68
in CCCCCCCCCC | -9.67
in CCCCCCCCCCO | -9.67
in CCCCCCCCO | -9.67
in CCCCCCCO | -9.66
in CCCCCCO | -9.63
in CCCCCO | -9.57
in CCCCO | -9.53
in CCCCOCCCC | -10.1
in CCCO | -9.41
in CCO | -9.19
in CCOCC | -10.5
in CO | -9.2
in COC(C)(C)C | -10.3
in ClC(Cl)(Cl)Cl | -10.8
in ClCCCl | -10.8

From the CombiSolv-Exp solvation set (Vermeire and Green 2021)
